We go through one compound from article PMC8794255, “Small molecule inhibitor of Igf2bp1 represses Kras and a pro-oncogenic phenotype in cancer cells” (RNA Biology, 2021).

One data set deals with T1, Igf2bp1 (Homo sapiens, UniProt Q9NZI8).
T1 construct: Recombinant full-length Igf2bp1 protein was labelled with RED-tris-NTA dye; made in house
Nature of the data set: Fluorescence polarization (FP) assay of Igf2bp1 binding to fluorescent Kras 6 RNA. Particulars: FP dose response; read-out: IC50, inhibition of Igf2bp1 binding to Kras 6 RNA. The protocol: For the small-molecule screen, compounds were obtained from the collection maintained at the Grand Israel National Center for Personalized Medicine, consisting of molecules purchased from commercial vendors. Labelled RNA (10 nM) was incubated with recombinant Igf2bp1 protein (400 nM) in FAM-RNA buffer (10 mM Tris pH 8.0, 75 mM KCl, 0.5 mM EDTA, 1 mM DTT, 0.0188 U/μL RNAsin, 0.0005 μg/mL heparin, 0.0001 μg/μL tRNA, 0.01% Triton X-100, 3 mM MgCl2, 0.05% IGEPAL) at room temperature for 15 min. 7 μL of this reaction mix was aliquoted with GNF WDII (USA) into wells of 1536 well plates, with a final concentration of 20 μM compound or DMSO. The plates were spun down and read in a BMG Pherastar FS (Germany) plate reader, in FP mode with a 485/520/520 polarization filter, calibrated to 35 mP for free fluorescein with similar total intensity as experimental samples. […]
To determine the quality of our screening assay, the Z’ factor for each plate was calculated with a Z’ factor greater than 0.5 indicating a robust assay suitable for high throughput screening. Compounds that altered the overall fluorescence intensity compared to controls were considered auto florescence and excluded from further analysis. […] Any small molecule that causes a change of more than three standard deviations from the mean is determined appropriate for further investigation.
Background: Polarisation of emitted light reports the rotation of a fluorescent probe.

The target of another data set is T2, La (Homo sapiens, UniProt P05455).
T2 sequence (P05455 1-408): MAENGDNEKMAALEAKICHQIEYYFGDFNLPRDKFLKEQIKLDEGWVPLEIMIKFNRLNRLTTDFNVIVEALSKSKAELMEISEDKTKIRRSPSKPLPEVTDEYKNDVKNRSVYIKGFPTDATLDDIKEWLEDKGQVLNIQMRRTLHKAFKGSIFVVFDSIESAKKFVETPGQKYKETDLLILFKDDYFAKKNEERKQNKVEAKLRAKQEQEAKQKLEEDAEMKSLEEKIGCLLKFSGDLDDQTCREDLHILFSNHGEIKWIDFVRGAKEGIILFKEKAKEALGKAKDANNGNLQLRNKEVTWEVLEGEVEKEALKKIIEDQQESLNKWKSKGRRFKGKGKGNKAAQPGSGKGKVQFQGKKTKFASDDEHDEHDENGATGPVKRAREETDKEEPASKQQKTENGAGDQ
Briefly: FP counterscreen: La binding to Bcl2 RNA. For orientation: Counterscreens check selectivity or assay interference.

The next data set addresses T3, G9a (Homo sapiens, UniProt Q96KQ7).
T3 sequence (Q96KQ7 1-1210): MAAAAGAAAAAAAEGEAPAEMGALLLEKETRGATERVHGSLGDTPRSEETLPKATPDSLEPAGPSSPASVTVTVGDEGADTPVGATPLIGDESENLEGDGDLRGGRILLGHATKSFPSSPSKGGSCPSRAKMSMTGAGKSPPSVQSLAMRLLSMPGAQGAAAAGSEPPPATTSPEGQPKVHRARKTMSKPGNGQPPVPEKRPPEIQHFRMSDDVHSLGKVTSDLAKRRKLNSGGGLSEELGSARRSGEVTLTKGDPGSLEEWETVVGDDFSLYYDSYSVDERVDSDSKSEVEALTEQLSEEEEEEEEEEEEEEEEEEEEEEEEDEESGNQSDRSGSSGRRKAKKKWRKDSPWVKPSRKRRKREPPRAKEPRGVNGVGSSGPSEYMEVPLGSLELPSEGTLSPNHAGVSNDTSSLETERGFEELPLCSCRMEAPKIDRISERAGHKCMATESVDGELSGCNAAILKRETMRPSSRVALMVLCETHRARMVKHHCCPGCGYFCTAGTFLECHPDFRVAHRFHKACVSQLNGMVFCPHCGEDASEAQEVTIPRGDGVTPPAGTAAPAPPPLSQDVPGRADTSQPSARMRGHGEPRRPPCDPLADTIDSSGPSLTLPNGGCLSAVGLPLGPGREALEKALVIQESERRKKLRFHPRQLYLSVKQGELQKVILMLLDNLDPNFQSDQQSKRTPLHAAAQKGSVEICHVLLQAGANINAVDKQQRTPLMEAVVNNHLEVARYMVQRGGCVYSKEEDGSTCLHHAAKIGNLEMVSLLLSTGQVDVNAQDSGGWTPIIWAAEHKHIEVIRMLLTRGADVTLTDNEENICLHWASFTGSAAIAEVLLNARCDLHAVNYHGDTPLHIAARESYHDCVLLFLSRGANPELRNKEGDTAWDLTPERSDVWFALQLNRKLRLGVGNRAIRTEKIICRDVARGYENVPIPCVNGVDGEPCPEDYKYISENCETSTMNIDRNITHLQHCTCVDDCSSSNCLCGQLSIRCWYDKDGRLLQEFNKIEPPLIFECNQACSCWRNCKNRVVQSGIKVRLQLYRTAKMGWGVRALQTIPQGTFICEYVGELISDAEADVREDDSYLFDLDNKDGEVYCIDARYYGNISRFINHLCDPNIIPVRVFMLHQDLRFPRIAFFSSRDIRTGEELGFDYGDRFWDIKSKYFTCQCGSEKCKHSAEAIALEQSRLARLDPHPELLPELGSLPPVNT
Nature of the data set: G9a FP assay (SAH-FITC probe). In kind it is biochemical. Here is the method:
For the small-molecule screen, compounds were obtained from the collection maintained at the Grand Israel National Center for Personalized Medicine, consisting of molecules purchased from commercial vendors. Labelled RNA (10 nM) was incubated with recombinant Igf2bp1 protein (400 nM) in FAM-RNA buffer (10 mM Tris pH 8.0, 75 mM KCl, 0.5 mM EDTA, 1 mM DTT, 0.0188 U/μL RNAsin, 0.0005 μg/mL heparin, 0.0001 μg/μL tRNA, 0.01% Triton X-100, 3 mM MgCl2, 0.05% IGEPAL) at room temperature for 15 min. 7 μL of this reaction mix was aliquoted with GNF WDII (USA) into wells of 1536 well plates, with a final concentration of 20 μM compound or DMSO. The plates were spun down and read in a BMG Pherastar FS (Germany) plate reader, in FP mode with a 485/520/520 polarization filter, calibrated to 35 mP for free fluorescein with similar total intensity as experimental samples. […]

The next data set deals with T4, Igf2bp3 (Homo sapiens, UniProt O00425).
T4 construct: made in house
T4 sequence (O00425 whole entry, species assumed): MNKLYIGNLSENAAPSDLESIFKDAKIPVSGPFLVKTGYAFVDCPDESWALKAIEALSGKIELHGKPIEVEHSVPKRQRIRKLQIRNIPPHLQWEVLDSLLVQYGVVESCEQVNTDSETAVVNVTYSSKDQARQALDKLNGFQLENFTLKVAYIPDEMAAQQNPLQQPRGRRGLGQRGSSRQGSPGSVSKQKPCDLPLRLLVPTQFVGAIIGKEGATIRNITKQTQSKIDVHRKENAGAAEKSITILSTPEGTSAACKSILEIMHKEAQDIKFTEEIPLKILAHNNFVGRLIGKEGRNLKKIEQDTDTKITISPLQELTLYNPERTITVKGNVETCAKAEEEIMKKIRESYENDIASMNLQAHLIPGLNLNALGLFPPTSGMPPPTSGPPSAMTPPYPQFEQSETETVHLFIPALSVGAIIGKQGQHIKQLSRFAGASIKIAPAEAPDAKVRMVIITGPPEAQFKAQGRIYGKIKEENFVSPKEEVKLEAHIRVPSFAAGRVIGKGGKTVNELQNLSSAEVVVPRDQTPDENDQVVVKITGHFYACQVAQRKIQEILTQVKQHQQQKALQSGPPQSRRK
Nature of the data set: MST, Igf2bp3. Particulars: IGF2BP3 50nM, read-out: KD of binding to Igf2bp3.

Another data set relates to HEK293 cells. Briefly: Cell proliferation assay (Incucyte), HEK293. In kind it is cell-based, human. Particulars: HEK293, up to 20 μM. The protocol:
ES2, H1299 and HEK293 cells were seeded in a 96 well plate (5X10^3 cells per well) for 24 hours before adding the compound at increasing concentrations. After an additional 24 hours, the plate was incubated in an IncuCyte® S3 Live-Cell Analysis System (Essen BioScience). The wells were filmed for 72 hours, and then analysed for proliferation rate Using IncuCyte® S3 Live-Cell Analysis System (Essen BioScience)

Several values for one entry are separate records, joined by “and”; a condition that tells them apart may be missing. Identical values can stand only once.

T1 sequence (Q9NZI8 whole entry): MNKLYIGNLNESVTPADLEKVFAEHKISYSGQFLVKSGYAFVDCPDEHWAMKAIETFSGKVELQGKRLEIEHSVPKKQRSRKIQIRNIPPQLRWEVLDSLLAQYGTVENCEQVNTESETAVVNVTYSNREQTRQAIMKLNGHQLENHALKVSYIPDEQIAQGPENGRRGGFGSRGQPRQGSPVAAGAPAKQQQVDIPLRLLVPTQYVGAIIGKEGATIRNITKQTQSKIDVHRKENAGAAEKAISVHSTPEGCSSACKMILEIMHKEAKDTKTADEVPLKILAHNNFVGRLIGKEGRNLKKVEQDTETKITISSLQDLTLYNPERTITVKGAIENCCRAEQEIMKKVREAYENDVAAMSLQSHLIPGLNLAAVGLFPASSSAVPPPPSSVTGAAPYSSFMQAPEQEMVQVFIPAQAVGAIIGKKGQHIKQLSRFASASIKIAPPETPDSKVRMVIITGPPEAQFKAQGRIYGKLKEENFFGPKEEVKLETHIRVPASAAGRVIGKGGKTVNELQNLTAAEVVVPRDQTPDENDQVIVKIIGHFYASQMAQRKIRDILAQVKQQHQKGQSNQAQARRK

Usually IC50 stands for the concentration at which inhibition is half-maximal. The Kd is a measure of binding affinity in units of concentration. Turning to `O=C(c1ccc(Cn2cnnn2)cc1)N1CCCC(Nc2ccc3c(c2)OCO3)C1` (stereo not drawn) [compound 7773], the IC50 on Igf2bp1 is ~30 µM and 30.4 µM; at La (control RNA binding protein, read-out: IC50, inhibition of La binding to Bcl2 RNA) it was above 100 µM. The “Effect on control RBP (La) binding to its target (Bcl2 RNA)” value at La is “almost no effect”. On G9a, the “Effect on G9a catalysing methylation of a peptide” value is on record as “almost no effect”. Besides, the Kd at Igf2bp3 is 52 µM. Also, the Cell proliferation entry with HEK293 cells is “remarkably unaffected”.
